In patent US7928098B2, “Therapeutic and/or preventive agents for a sleep disorder” (Kyowa Hakko Kirin Co., Ltd., priority 2005, dated 2011):

Structure (SMILES)	melting point
O=C(Nc1nc(-c2ccco2)c(C(=O)c2ccccn2)s1)c1ccnc(N2CCOCC2)c1 [Compound 127, N-[4-(2-Furyl)-5-(pyridin-2-ylcarbonyl)thiazol-2-yl]-2-morpholinopyridine-4-carboxamide]	216 to 217 °C
Cc1ncccc1C(=O)Nc1nc(-c2ccco2)c(C(=O)c2ccccn2)s1 [Compound 129, N-[4-(2-Furyl)-5-(pyridin-2-ylcarbonyl)thiazol-2-yl]-2-methylpyridine-3-carboxamide]	186 to 187 °C
Cc1ccc(C(=O)Nc2nc(-c3ccco3)c(C(=O)c3ccccn3)s2)cn1 [Compound 130, N-[4-(2-Furyl)-5-(pyridin-2-ylcarbonyl)thiazol-2-yl]-2-methylpyridine-5-carboxamide]	210 to 215 °C
Cc1cncc(C(=O)Nc2nc(-c3ccco3)c(C(=O)c3ccccn3)s2)c1 [Compound 131, N-[4-(2-Furyl)-5-(pyridin-2-ylcarbonyl)thiazol-2-yl]-5-methylpyridine-3-carboxamide]	245 to 248 °C
COc1ccc(C(=O)Nc2nc(-c3ccco3)c(C(=O)c3ccccn3)s2)c(OC)n1 [Compound 132, N-[4-(2-Furyl)-5-(pyridin-2-ylcarbonyl)thiazol-2-yl]-2,6-dimethoxypyridine-3-carboxamide]	201 to 202 °C
O=C(Nc1nc(-c2ccco2)c(C(=O)c2ccccn2)s1)c1cncc(Br)c1 [Compound 134, 5-Bromo-N-[4-(2-furyl)-5-(pyridin-2-ylcarbonyl)thiazol-2-yl]pyridine-3-carboxamide]	259 to 262 °C
O=C(Nc1nc(-c2ccco2)c(C(=O)c2ccccn2)s1)c1ccnnc1 [Compound 135, N-[4-(2-Furyl)-5-(pyridin-2-ylcarbonyl)thiazol-2-yl]pyridazine-4-carboxamide]	270 to 274 °C
O=C(Nc1nc(-c2ccco2)c(C(=O)c2ccccn2)s1)c1cnc(C2CC2)nc1 [Compound 137, 2-Cyclopropyl-N-[4-(2-furyl)-5-(pyridin-2-ylcarbonyl)thiazol-2-yl]pyrimidine-5-carboxamide]	150 to 154 °C
Cc1cnc(C(=O)Nc2nc(-c3ccco3)c(C(=O)c3ccccn3)s2)cn1 [Compound 138, N-[4-(2-Furyl)-5-(pyridin-2-ylcarbonyl)thiazol-2-yl]-5-methylpyrazine-2-carboxamide]	208 to 209 °C
O=C(Nc1nc(-c2ccco2)c(C(=O)c2ccccn2)s1)c1cc[nH]c(=O)c1 [Compound 139, N-[4-(2-Furyl)-5-(pyridin-2-ylcarbonyl)thiazol-2-yl]-2-oxo-1,2-dihydropyridine-4-carboxamide]	170 to 180 °C (dec.)
O=C(Nc1nc(-c2ccco2)c(C(=O)c2ccccn2)s1)c1ccn(Cc2ccccc2)c(=O)c1 [Compound 140, 1-Benzyl-N-[4-(2-furyl)-5-(pyridin-2-ylcarbonyl)thiazol-2-yl]-2-oxo-1,2-dihydropyridine-4-carboxamide]	269 to 270 °C
Cn1ccc(C(=O)Nc2nc(-c3ccco3)c(C(=O)c3ccccn3)s2)cc1=O [Compound 141, N-[4-(2-Furyl)-5-(pyridin-2-ylcarbonyl)thiazol-2-yl]-1-methyl-2-oxo-1,2-dihydropyridine-4-carboxamide]	280 to 285 °C
O=C(Nc1nc(-c2ccco2)c(C(=O)c2ccccn2)s1)c1ccc(Br)o1 [Compound 143, 5-Bromo-N-[4-(2-furyl)-5-(pyridin-2-ylcarbonyl)thiazol-2-yl]furan-2-carboxamide]	211 to 212 °C
O=C(Nc1nc(-c2ccco2)c(C(=O)c2ccccn2)s1)c1ccc([N+](=O)[O-])o1 [Compound 144, N-[4-(2-Furyl)-5-(pyridin-2-ylcarbonyl)thiazol-2-yl]-5-nitrofuran-2-carboxamide]	278 to 283 °C (dec.)
Cc1ccoc1C(=O)Nc1nc(-c2ccco2)c(C(=O)c2ccccn2)s1 [Compound 145, N-[4-(2-Furyl)-5-(pyridin-2-ylcarbonyl)thiazol-2-yl]-3-methylfuran-2-carboxamide]	174 to 176 °C
